Reference: patent US11044908B2, “Reactive antibacterial compound and preparation method thereof” (SHENZHEN UNIVERSITY, priority 2015, dated 2021)
Values after ≈ are worked out from the molar mass of the structure shown.

How the values were obtained:
Assay type in all cases: cell-based
[1] = test system: E. coli (American Type Culture Collection ATCC 25922); experiment: Minimum inhibitory concentration (MIC) test; conditions: E. coli ATCC 25922; 24 h culture
Method: (§1) The minimum inhibitory concentration (MIC) is the lowest concentration of antibacterial agents that can inhibit the visible growth of bacteria after 24 h culture in a specific environment. Methods for determining the minimum inhibitory concentration can be a constant broth dilution method, a trace broth dilution method, an agar dilution method or an E experiment.

[2] = test system: S. aureas (ATCC 6538); experiment: Minimum inhibitory concentration (MIC) test; conditions: 24 h culture
Method: as §1

[3] = test system: E. coli; experiment: Durable antibacterial activity of glass surfaces modified by antibacterial agents (plate/colony counting method)
[4] = test system: S. aureas; experiment: as above

SMILES: CC[N+](CC)(CCCS(=O)(=O)[O-])CCOC(=O)Nc1ccc(Cc2ccc(N=C=O)cc2)cc1 [Example 2]
- Minimum inhibitory concentration (MIC) [1]: 12 mM (≈ 5880 µg/mL)
- Minimum inhibitory concentration (MIC) [2]: 10 mM (≈ 4900 µg/mL)
- Antibacterial activity of modified glass surface (plate counting method) ([3]; wash number 0): 99.99%
- Antibacterial activity of modified glass surface (plate counting method) ([3]; wash number 10): 99.9%
- Antibacterial activity of modified glass surface (plate counting method) ([3]; wash number 50): 97.3%
- Antibacterial activity of modified glass surface (plate counting method) ([3]; wash number 100): 95.9%
- Antibacterial activity of modified glass surface (plate counting method) ([4]; wash number 0): 99.99%
- Antibacterial activity of modified glass surface (plate counting method) ([4]; wash number 10): 99.9%
- Antibacterial activity of modified glass surface (plate counting method) ([4]; wash number 50): 98.9%
- Antibacterial activity of modified glass surface (plate counting method) ([4]; wash number 100): 96.6%

SMILES: C[N+](C)(CCOC(=O)NCCCCCCN=C=O)CC(=O)[O-] [Example 3]
- Minimum inhibitory concentration (MIC) [1]: 11 mM (≈ 3470 µg/mL)
- Minimum inhibitory concentration (MIC) [2]: 8 mM (≈ 2520 µg/mL)
- Antibacterial activity of modified glass surface (plate counting method) ([3]; wash number 0): 99.99%
- Antibacterial activity of modified glass surface (plate counting method) ([3]; wash number 10): 99.8%
- Antibacterial activity of modified glass surface (plate counting method) ([3]; wash number 50): 98.5%
- Antibacterial activity of modified glass surface (plate counting method) ([3]; wash number 100): 96.5%
- Antibacterial activity of modified glass surface (plate counting method) ([4]; wash number 0): 99.99%
- Antibacterial activity of modified glass surface (plate counting method) ([4]; wash number 10): 99.9%
- Antibacterial activity of modified glass surface (plate counting method) ([4]; wash number 50): 99.0%
- Antibacterial activity of modified glass surface (plate counting method) ([4]; wash number 100): 97.2%

SMILES: C[N+](C)(CCCS(=O)(=O)[O-])CCNC(=O)NC1CCC(CC2CCC(N=C=O)CC2)CC1 (stereo not drawn) [Example 5]
- Minimum inhibitory concentration (MIC) [1]: 10 mM (≈ 4730 µg/mL)
- Minimum inhibitory concentration (MIC) [2]: 7 mM (≈ 3310 µg/mL)
- Antibacterial activity of modified glass surface (plate counting method) ([3]; wash number 0): 99.99%
- Antibacterial activity of modified glass surface (plate counting method) ([3]; wash number 10): 99.7%
- Antibacterial activity of modified glass surface (plate counting method) ([3]; wash number 50): 99.0%
- Antibacterial activity of modified glass surface (plate counting method) ([3]; wash number 100): 96.5%
- Antibacterial activity of modified glass surface (plate counting method) ([4]; wash number 0): 99.99%
- Antibacterial activity of modified glass surface (plate counting method) ([4]; wash number 10): 99.9%
- Antibacterial activity of modified glass surface (plate counting method) ([4]; wash number 50): 99.5%
- Antibacterial activity of modified glass surface (plate counting method) ([4]; wash number 100): 98.5%

SMILES: Cc1cc(NC(=O)NC2CC(C)(C)CC(C)(CN=C=O)C2)cc(C)[n+]1CCCS(=O)(=O)[O-] (stereo not drawn) [Example 9]
- Minimum inhibitory concentration (MIC) [1]: 10 mM (≈ 4670 µg/mL)
- Minimum inhibitory concentration (MIC) [2]: 8 mM (≈ 3730 µg/mL)
- Antibacterial activity of modified glass surface (plate counting method) ([3]; wash number 0): 99.99%
- Antibacterial activity of modified glass surface (plate counting method) ([3]; wash number 10): 99.8%
- Antibacterial activity of modified glass surface (plate counting method) ([3]; wash number 50): 97.1%
- Antibacterial activity of modified glass surface (plate counting method) ([3]; wash number 100): 94.3%
- Antibacterial activity of modified glass surface (plate counting method) ([4]; wash number 0): 99.99%
- Antibacterial activity of modified glass surface (plate counting method) ([4]; wash number 10): 99.9%
- Antibacterial activity of modified glass surface (plate counting method) ([4]; wash number 50): 98.5%
- Antibacterial activity of modified glass surface (plate counting method) ([4]; wash number 100): 95.2%

SMILES: CC1(C)CC(NC(=O)OCC[N+](C)(C)CCS(=O)(=O)[O-])CC(C)(CN=C=O)C1 (stereo not drawn) [Example 10]
- Minimum inhibitory concentration (MIC) [1]: 12 mM (≈ 5030 µg/mL)
- Minimum inhibitory concentration (MIC) [2]: 9 mM (≈ 3780 µg/mL)
- Antibacterial activity of modified glass surface (plate counting method) ([3]; wash number 0): 99.99%
- Antibacterial activity of modified glass surface (plate counting method) ([3]; wash number 10): 99.8%
- Antibacterial activity of modified glass surface (plate counting method) ([3]; wash number 50): 97.5%
- Antibacterial activity of modified glass surface (plate counting method) ([3]; wash number 100): 94.1%
- Antibacterial activity of modified glass surface (plate counting method) ([4]; wash number 0): 99.99%
- Antibacterial activity of modified glass surface (plate counting method) ([4]; wash number 10): 99.9%
- Antibacterial activity of modified glass surface (plate counting method) ([4]; wash number 50): 98.9%
- Antibacterial activity of modified glass surface (plate counting method) ([4]; wash number 100): 95.3%

SMILES: CC1(C)CC(NC(=O)OCC[N+](C)(C)CCCC(=O)[O-])CC(C)(CN=C=O)C1 (stereo not drawn) [Example 11]
- Minimum inhibitory concentration (MIC) [1]: 10 mM (≈ 3980 µg/mL)
- Minimum inhibitory concentration (MIC) [2]: 8 mM (≈ 3180 µg/mL)
- Antibacterial activity of modified glass surface (plate counting method) ([3]; wash number 0): 99.99%
- Antibacterial activity of modified glass surface (plate counting method) ([3]; wash number 10): 99.8%
- Antibacterial activity of modified glass surface (plate counting method) ([3]; wash number 50): 97.1%
- Antibacterial activity of modified glass surface (plate counting method) ([3]; wash number 100): 94.5%
- Antibacterial activity of modified glass surface (plate counting method) ([4]; wash number 0): 99.99%
- Antibacterial activity of modified glass surface (plate counting method) ([4]; wash number 10): 99.9%
- Antibacterial activity of modified glass surface (plate counting method) ([4]; wash number 50): 98.3%
- Antibacterial activity of modified glass surface (plate counting method) ([4]; wash number 100): 95.8%
